For data set [1], the system named is Huh7 tumor-bearing BALB/c nude mice xenografts. The data set can be described thus: Growth inhibition of Huh7 xenografts in BALB/c nude mice. The format is in vivo. The conditions noted are these: 25 mg/kg IP, bid. How it is done: On day 0, Huh7 cells were cultured in DMEM medium containing 10% of fetal bovine serum, 100 U of penicillin, and 100 μg/mL of streptomycin. And cultured in an incubator of 37° C., 5% CO2.
Each mouse was inoculated subcutaneously in the right axilla with 150 μL of cell suspension (5.0×10^6 cells/mouse) under sterile conditions. On day 12 after inoculation, when the tumor grew to a volume of 200-300 mm^3, mice with similar tumor volume and good shape were selected (the shape was as single spherical as possible, no irregular shape or multiple tumors gathered together) and divided into 5 groups, each group had 9 mice.
(§1) Each group of animals was administrated (intraperitoneal injection (ip) or oral administration (po)) a test substance twice a day (bid) at a fix time per day according to the body weight of the animals. The first dose was administered on the day of grouping ([…]), and continued for 22 days, the body weight of the animals was recorded daily.
The formation of tumor in the inoculated part of each group of animals was observed. The long diameter (Y) and short diameter (X) of the tumor nodules were measured twice a week using vernier calipers and calculated according to the following formula: Volume of tumor nodules(V):V=(X^2Y)/2.
Evaluation index of antitumor activity: tumor growth inhibition rate TGI (%), relative tumor proliferation rate T/C (%).
The relative tumor volume (RTV) is calculated as: RTV=100×TVt/TVinitial
The calculation formula for the relative tumor proliferation rate (% T/C) is: % T/C=100%×(RTVT/RTVC)

Data set [2] is described as follows: Body weight and weight loss rate of Huh7 tumor-bearing mice during administration. The data set is classed as in vivo, BALB/c nude mice. The conditions noted are these: 25 mg/kg (IP, bid), 50 mg/kg (IP, bid) and 300 mg/kg (PO, bid); within 22 days. How it is done:
as §1
The calculation formula for the weight loss rate of animals is (see FIG. 3 for the results): Weight loss rate of animals=100%×(BWinitial−BWt)/BWinitial
wherein, BWt represents the body weight of the animal at each measurement during administration; BWinitial represents the body weight of the animal at the time of grouping administration.

Data on two compounds can be found in patent US11001572B2, “Pyrimidine derivative, method for preparing same and use thereof in medicine” (Zhejiang Hisun Pharmaceutical Co., Ltd., priority 2016, dated 2021).

As for `C=CC(=O)Nc1cc(N2CCN(CC)CC2)ccc1Nc1cc(N(C)C(=O)Nc2c(Cl)c(OC)cc(OC)c2Cl)ncn1` [Example 108 of WO2015057938], the “Tumor growth inhibition rate (TGI %)” value in data set [1] (Day 16 after inoculation) stood at 34%; in data set [1] (Day 20 after inoculation), 21%; in data set [1] (Day 23 after inoculation) it was 21%; in data set [1] (Day 27 after inoculation), 29%; in data set [1] (Day 30 after inoculation), 24%; in data set [1] (Day 34 after inoculation), 16%. Moreover, in data set [1] (end of the experiment), the “Tumor weight inhibition rate (%)” value stood at 2.2%.

Turning to `C=CC(=O)Nc1cc(N2CCN(CC)C3(CC3)C2)ccc1Nc1cc(N(C)C(=O)Nc2c(Cl)c(OC)cc(OC)c2Cl)ncn1` [Example 5, N-(2-((6-(3-(2,6-Dichloro-3,5-dimethoxyphenyl)-1-methylureido)pyrimidin-4-yl)amino)-5-(4-ethyl-4,7-diazaspiro[2.5]octan-7-yl)phenyl)acrylamide], the body weight change result in data set [2] was “no significant body weight change”.
